Laboratory results taken from ChEMBL document CHEMBL1201862, “PubChem BioAssay data set” (2004).
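Where inhibition never reached the appropriate level, the endpoint shown equals the highest concentration tested. Otherwise, values were interpolated linearly from a five-concentration, 48-hour dose response in 96-well plates. GI50 marks 50% less growth.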 The source made the active and inactive calls. No stated cut-off is given here; in the data, active = GI50 up to about 1.1 µM and inactive = higher.

Tests used:
Experiment in all cases: NCI-60 cell line screen, 48 h
[1] = tested on: SW-620
[2] = tested on: CAKI-1
[3] = tested on: 786-0
[4] = tested on: SK-MEL-5
[5] = tested on: SN12C
[6] = tested on: HT-29
[7] = tested on: XF498
[8] = tested on: HCT-116
[9] = tested on: DMS-114
[10] = tested on: SF-295
[11] = tested on: CCRF-CEM
[12] = tested on: RPMI-8226
[13] = tested on: NCI-H23
[14] = tested on: NCI-H226
[15] = tested on: HCC 2998
[16] = tested on: KM-20L2
[17] = tested on: SK-MEL-2
[18] = tested on: OVCAR-8
[19] = tested on: EKVX
[20] = tested on: ACHN
[21] = tested on: IGROV-1
[22] = tested on: UACC-62
[23] = tested on: SNB-19
[24] = tested on: SK-MEL-28
[25] = tested on: OVCAR-4
[26] = tested on: SF-539
[27] = tested on: Malme-3M
[28] = tested on: UO-31
[29] = tested on: LOX IMVI
[30] = tested on: DMS-273
[31] = tested on: OVCAR-3
[32] = tested on: NCI-H460
[33] = tested on: KM12
[34] = tested on: SF-268
[35] = tested on: NCI-H522
[36] = tested on: K562
[37] = tested on: U-251
[38] = tested on: DLD-1
[39] = tested on: HOP-92
[40] = tested on: TK-10
[41] = tested on: M19-MEL
[42] = tested on: M14
[43] = tested on: A549
[44] = tested on: OVCAR-5
[45] = tested on: HOP-62
[46] = tested on: LXFL 529
[47] = tested on: SK-OV-3
[48] = tested on: SNB-78
[49] = tested on: COLO 205
[50] = tested on: SNB-75
[51] = tested on: RXF 631
[52] = tested on: MOLT-4
[53] = tested on: HCT-15
[54] = tested on: RXF 393
[55] = tested on: UACC-257
[56] = tested on: HL-60
[57] = tested on: HOP-18
[58] = tested on: A498
[59] = tested on: SR

Compound: C=C1C(=O)O[C@@H]2C[C@]3(C)[C@@H](C[C@H]12)[C@](C)(O)CC[C@@H]3O
- GI50 [1]: 45.9 µM (inactive)
- GI50 [2]: 66.1 µM (inactive)
- GI50 [3]: 39.4 µM (inactive)
- GI50 [4]: 91.8 µM (inactive)
- GI50 [5]: 59.4 µM (inactive)
- GI50 [6]: 33.3 µM (inactive)
- GI50 [7]: 36.5 µM (inactive)
- GI50 [8]: 36 µM (inactive)
- GI50 [9]: 39.2 µM (inactive)
- GI50 [10]: > 100 µM (inactive)
- GI50 [11]: 33.5 µM (inactive)
- GI50 [12]: 52.7 µM (inactive)
- GI50 [13]: 30.1 µM (inactive)
- GI50 [14]: 48.3 µM (inactive)
- GI50 [15]: > 100 µM (inactive)
- GI50 [16]: 38.9 µM (inactive)
- GI50 [17]: 69.2 µM (inactive)
- GI50 [18]: 36.6 µM (inactive)
- GI50 [19]: > 100 µM (inactive)
- GI50 [20]: > 100 µM (inactive)
- GI50 [21]: > 100 µM (inactive)
- GI50 [22]: 32.5 µM (inactive)
- GI50 [23]: > 100 µM (inactive)
- GI50 [24]: 65.2 µM (inactive)
- GI50 [25]: > 100 µM (inactive)
- GI50 [26]: 34 µM (inactive)
- GI50 [27]: 71.3 µM (inactive)
- GI50 [28]: > 100 µM (inactive)
- GI50 [29]: 55.7 µM (inactive)
- GI50 [30]: 52.8 µM (inactive)
- GI50 [31]: 37.9 µM (inactive)
- GI50 [32]: 23.7 µM (inactive)
- GI50 [33]: 37.8 µM (inactive)
- GI50 [34]: 42.4 µM (inactive)
- GI50 [35]: 34.8 µM (inactive)
- GI50 [36]: 33.4 µM (inactive)
- GI50 [37]: > 100 µM (inactive)
- GI50 [38]: 41 µM (inactive)
- GI50 [39]: 81.3 µM (inactive)
- GI50 [40]: 26.9 µM (inactive)
- GI50 [41]: 43.9 µM (inactive)
- GI50 [42]: 31.5 µM (inactive)
- GI50 [43]: > 100 µM (inactive)
- GI50 [44]: > 100 µM (inactive)
- GI50 [45]: > 100 µM (inactive)
- GI50 [46]: 44 µM (inactive)
- GI50 [47]: > 100 µM (inactive)
- GI50 [48]: 47.8 µM (inactive)
- GI50 [49]: 38.8 µM (inactive)
- GI50 [50]: 53.3 µM (inactive)
- GI50 [51]: 87.5 µM (inactive)
- GI50 [52]: 57.1 µM (inactive)
- GI50 [53]: 52.4 µM

Compound: COc1cc(C2C3=C(CCC3=O)Oc3cc4c(cc32)OCO4)cc(OC)c1OC (stereo not given)
- GI50 [1]: 0.285 µM (active)
- GI50 [2]: 0.222 µM (active)
- GI50 [4]: 0.237 µM (active)
- GI50 [5]: 0.593 µM (active)
- GI50 [6]: 0.279 µM (active)
- GI50 [7]: 0.122 µM (active)
- GI50 [8]: 0.391 µM (active)
- GI50 [9]: 0.218 µM (active)
- GI50 [10]: 0.109 µM (active)
- GI50 [11]: 0.318 µM (active)
- GI50 [54]: 0.54 µM (active)
- GI50 [13]: 0.39 µM (active)
- GI50 [16]: 0.238 µM (active)
- GI50 [18]: 0.596 µM (active)
- GI50 [19]: 0.422 µM (active)
- GI50 [20]: 0.337 µM (active)
- GI50 [21]: 0.67 µM (active)
- GI50 [22]: 0.141 µM (active)
- GI50 [23]: 0.692 µM (active)
- GI50 [24]: 0.429 µM (active)
- GI50 [25]: 10 µM (inactive)
- GI50 [27]: 1.44 µM (inactive)
- GI50 [28]: 0.321 µM (active)
- GI50 [29]: 0.491 µM (active)
- GI50 [30]: 0.158 µM (active)
- GI50 [31]: 0.136 µM (active)
- GI50 [32]: 0.358 µM (active)
- GI50 [55]: 0.406 µM (active)
- GI50 [56]: 0.204 µM (active)
- GI50 [36]: 0.138 µM (active)
- GI50 [37]: 0.366 µM (active)
- GI50 [39]: 0.036 µM (active)
- GI50 [40]: 0.417 µM (active)
- GI50 [57]: > 100 µM (inactive)
- GI50 [41]: 0.412 µM (active)
- GI50 [42]: 0.349 µM (active)
- GI50 [43]: 0.448 µM (active)
- GI50 [44]: 0.458 µM (active)
- GI50 [45]: 0.0324 µM (active)
- GI50 [47]: 0.28 µM (active)
- GI50 [48]: 0.706 µM (active)
- GI50 [49]: 0.336 µM (active)
- GI50 [50]: 0.038 µM (active)
- GI50 [51]: 0.367 µM (active)
- GI50 [53]: 0.256 µM

Compound: COc1ccc(S(=O)(=O)N/N=C(\C)CN2C(=O)c3ccccc3C2=O)cc1
- GI50 [1]: > 100 µM (inactive)
- GI50 [2]: > 100 µM (inactive)
- GI50 [3]: > 100 µM (inactive)
- GI50 [4]: > 100 µM (inactive)
- GI50 [5]: > 100 µM (inactive)
- GI50 [6]: > 100 µM (inactive)
- GI50 [58]: > 100 µM (inactive)
- GI50 [8]: > 100 µM (inactive)
- GI50 [9]: > 100 µM (inactive)
- GI50 [10]: > 100 µM (inactive)
- GI50 [11]: > 100 µM (inactive)
- GI50 [12]: > 100 µM (inactive)
- GI50 [13]: > 100 µM (inactive)
- GI50 [14]: > 100 µM (inactive)
- GI50 [15]: > 100 µM (inactive)
- GI50 [16]: > 100 µM (inactive)
- GI50 [17]: > 100 µM (inactive)
- GI50 [18]: > 100 µM (inactive)
- GI50 [19]: > 100 µM (inactive)
- GI50 [20]: > 100 µM (inactive)
- GI50 [21]: > 100 µM (inactive)
- GI50 [22]: > 100 µM (inactive)
- GI50 [23]: > 100 µM (inactive)
- GI50 [24]: > 100 µM (inactive)
- GI50 [25]: > 100 µM (inactive)
- GI50 [26]: > 100 µM (inactive)
- GI50 [27]: > 100 µM (inactive)
- GI50 [28]: > 100 µM (inactive)
- GI50 [29]: > 100 µM (inactive)
- GI50 [30]: > 100 µM (inactive)
- GI50 [31]: > 100 µM (inactive)
- GI50 [32]: > 100 µM (inactive)
- GI50 [33]: > 100 µM (inactive)
- GI50 [34]: > 100 µM (inactive)
- GI50 [35]: > 100 µM (inactive)
- GI50 [55]: > 100 µM (inactive)
- GI50 [56]: > 100 µM (inactive)
- GI50 [36]: > 100 µM (inactive)
- GI50 [37]: > 100 µM (inactive)
- GI50 [38]: > 100 µM (inactive)
- GI50 [40]: > 100 µM (inactive)
- GI50 [57]: > 100 µM (inactive)
- GI50 [41]: > 100 µM (inactive)
- GI50 [42]: > 100 µM (inactive)
- GI50 [43]: > 100 µM (inactive)
- GI50 [44]: > 100 µM (inactive)
- GI50 [45]: > 100 µM (inactive)
- GI50 [46]: > 100 µM (inactive)
- GI50 [47]: > 100 µM (inactive)
- GI50 [48]: > 100 µM (inactive)
- GI50 [49]: > 100 µM (inactive)
- GI50 [50]: > 100 µM (inactive)
- GI50 [51]: > 100 µM (inactive)
- GI50 [52]: > 100 µM (inactive)
- GI50 [53]: > 100 µM
- GI50 [59]: > 100 µM (inactive)

Compound: CCOC(=O)C(C)(C)Oc1ccc(/C=C/C(=O)c2ccc(Cl)cc2)cc1
- GI50 [1]: 13.9 µM (inactive)
- GI50 [3]: 17.2 µM (inactive)
- GI50 [4]: 14.9 µM (inactive)
- GI50 [5]: 19.1 µM (inactive)
- GI50 [6]: 15.6 µM (inactive)
- GI50 [58]: 20.2 µM (inactive)
- GI50 [7]: 18.8 µM (inactive)
- GI50 [8]: 16.4 µM (inactive)
- GI50 [9]: 17.4 µM (inactive)
- GI50 [10]: 21 µM (inactive)
- GI50 [11]: 17.2 µM (inactive)
- GI50 [12]: 10.9 µM (inactive)
- GI50 [54]: 15.3 µM (inactive)
- GI50 [13]: 18.6 µM (inactive)
- GI50 [14]: 30 µM (inactive)
- GI50 [15]: > 10 µM (inactive)
- GI50 [16]: 17.8 µM (inactive)
- GI50 [17]: 20.7 µM (inactive)
- GI50 [18]: 21.6 µM (inactive)
- GI50 [19]: > 100 µM (inactive)
- GI50 [20]: > 10 µM (inactive)
- GI50 [21]: 17.3 µM (inactive)
- GI50 [22]: 20.6 µM (inactive)
- GI50 [23]: 19.2 µM (inactive)
- GI50 [24]: 19.4 µM (inactive)
- GI50 [25]: 18.9 µM (inactive)
- GI50 [26]: 19.5 µM (inactive)
- GI50 [27]: 18.4 µM (inactive)
- GI50 [28]: 35.2 µM (inactive)
- GI50 [29]: 16.6 µM (inactive)
- GI50 [30]: 16.7 µM (inactive)
- GI50 [31]: 16.3 µM (inactive)
- GI50 [32]: 28.7 µM (inactive)
- GI50 [34]: 19.1 µM (inactive)
- GI50 [55]: 18.4 µM (inactive)
- GI50 [56]: 24.5 µM (inactive)
- GI50 [36]: 14.3 µM (inactive)
- GI50 [37]: 17.7 µM (inactive)
- GI50 [38]: 14.1 µM (inactive)
- GI50 [40]: 70.8 µM (inactive)
- GI50 [41]: 20 µM (inactive)
- GI50 [42]: 18.4 µM (inactive)
- GI50 [43]: 33.5 µM (inactive)
- GI50 [45]: 39.4 µM (inactive)
- GI50 [46]: 15.8 µM (inactive)
- GI50 [49]: 24 µM (inactive)
- GI50 [50]: 15.2 µM (inactive)
- GI50 [51]: 19.5 µM (inactive)
- GI50 [52]: 19.6 µM (inactive)
- GI50 [53]: 17.2 µM
- GI50 [59]: 27.3 µM (inactive)
